In patent publication US9175024B2, “Platinum compound having amino or alkylamino-containing succinic acid derivatives as leaving group, preparation method thereof, and use thereof” (BEIJING FSWELCOME TECHNOLOGY DEVELOPMENT CO., LTD., priority 2011, dated 2015):
“And” between values parts separate entries of the source, which are not always exact repeats. Equal values may be shown once.

Assays:
[1] = system: Pulmonary epithelial cell BEAS-2B; assay: MTT cytotoxicity, pulmonary epithelial cell BEAS-2B; assay type: cell-based; conditions: n = 6, Pulmonary epithelial cell BEAS-2B
Protocol: (§1) Several kinds of tumor cells in exponential growth phase were prepared into single cell suspension, inoculated on 96 pore plat at the density of 4×10^4/hole, cultivated for 24 hours to enable to adhere to wall with 1640 culture medium containing 10% fetal calf serum (complete medium) at 37° C.; the final culture volume was 100 μl. Cell morphology was observed after culture for 24 hours.

Lewis lung cancer = assay: MTT cytotoxicity, Lewis lung cancer; assay type: cell-based; conditions: n = 6, Lewis lung cancer
Protocol: as §1

Breast cancer MCF-7 [2] = assay: MTT cytotoxicity, breast cancer MCF-7; assay type: cell-based; conditions: n = 6, Breast cancer MCF-7
Protocol: as §1

normal mice = assay: Acute toxic effect of platinum complex on normal mice (LD50, single intravenous administration); assay type: in vivo, Kunming mice; conditions: single intravenous administration in 5% glucose solution, 14 days observation, Bliss method
Protocol: (§2) Kunming mice at 4˜6 weeks old and at the weight of 18˜22 g were taken, 50% male and 50% female. Embodiment platinum compound was dissolved with 5% glucose solution. […] Mortality and toxicity were observed after administration, totally observing 14 days, LD50 value was calculated with Bliss method according to mortality.

Lung cancer A549 = assay: MTT cytotoxicity, lung cancer A549; assay type: cell-based; conditions: n = 6, Lung cancer A549
Protocol: as §1

[3] = system: Breast cancer MCF-7 Cisplatin resistance strain; assay: MTT cytotoxicity, breast cancer MCF-7 cisplatin resistance strain; assay type: cell-based; conditions: n = 6, Breast cancer MCF-7 Cisplatin resistance strain
Protocol: as §1

Colon cancer SW480 [4] = assay: MTT cytotoxicity, colon cancer SW480; assay type: cell-based; conditions: n = 6, Colon cancer SW480
Protocol: as §1

Gastric cancer MGC803 = assay: MTT cytotoxicity, gastric cancer MGC803; assay type: cell-based; conditions: n = 6, Gastric cancer MGC803
Protocol: as §1

Testis cell ST = assay: MTT cytotoxicity, testis cell ST; assay type: cell-based; conditions: n = 6, Testis cell ST
Protocol: as §1

Esophagus cancer ECA109 = assay: MTT cytotoxicity, esophagus cancer ECA109; assay type: cell-based; conditions: n = 6, Esophagus cancer ECA109
Protocol: as §1

Lung cancer H292 = assay: MTT cytotoxicity, lung cancer H292; assay type: cell-based; conditions: n = 6, Lung cancer H292
Protocol: as §1

colon cancer SW480 [5] = assay: In vivo antitumor activity, colon cancer SW480 in nude mice; conditions: SW480 in male nude mice, once a week, 4 times, tumor weighed after 4 weeks
Description: The calculation formula of tumor inhabitation rate is: […]

breast cancer MCF-7 [6] = assay: In vivo antitumor activity, breast cancer MCF-7 in nude mice; conditions: MCF-7 in female nude mice, 30 mg (platinum)/kg, once a week, 4 times, tumor weighed 4 weeks later
physchem = conditions: water
[7] = Acute toxic effect of platinum complex on normal mice (LD50, single intravenous administration); assay type: in vivo, Kunming mice; conditions: both sexes, Kunming, mouse, in vivo; single intravenous administration in 5% glucose solution, 14 days observation, Bliss method
Protocol: as §2

SMILES	IC50 [1]	IC50 (Lewis lung cancer)	IC50 (Breast cancer MCF-7 [2])	LD50 value (normal mice)	IC50 (Lung cancer A549)	IC50 [3]	IC50 (Colon cancer SW480 [4])	IC50 (Gastric cancer MGC803)	IC50 (Testis cell ST)	IC50 (Esophagus cancer ECA109)	IC50 (Lung cancer H292)	Tumor inhibition rate (x ± SD) (colon cancer SW480 [5]; 10 mg (platinum)/kg)	Tumor inhibition rate (x ± SD) (breast cancer MCF-7 [6])	Tumor inhibition rate (x ± SD) (colon cancer SW480 [5]; 30 mg (platinum)/kg)	solubility (physchem)	LD50 at 14 days [7]
CC(=O)NC(CC(=O)[O-])C(=O)[O-].NC1CCCCC1N.[Pt+2] (centres unmarked) [Contrast Embodiment 1, reference compound]	433 µM	545 µM	632 µM	0.092 mmol/kg	436 µM	425 µM	615 µM	525 µM	239 µM	467 µM	253 µM and 353 µM and 365 µM					
NCCC(CC(=O)[O-])C(=O)[O-].N[C@@H]1CCCC[C@H]1N.[Pt+2] (relative stereo) [Compound 9, [2-(2-aminoethyl)-succinato].[Cis-(1,2-trans-cyclohexyldiamine)]platinum (II)]	17 µM	84 µM		0.429 mmol/kg			62 µM				26 µM	44.8 ± 10.8%				
CCNCCC1CC(=O)[O][Pt]2([NH]C3CCCCC3[NH]2)[O]C1=O (stereo not drawn) [Compound 12, [2-(2-ethylamino ethyl)-succinato].[Cis-(1,2-trans-cyclohexyldiamine)]platinum (II)]	57 µM	69 µM		0.602 mmol/kg			72 µM				61 µM	46.8 ± 9.17%				
NC1CCCCC1N.O=C([O-])CC(CCCN1CCCCC1)C(=O)[O-].[Pt+2] (racemic) [Compound 13, [2-(3-(1-piperidyl)propyl)-succinato].[Cis-(1,2-trans-cyclohexyldiamine)]platinum (II)]	12 µM	32 µM		0.542 mmol/kg			95 µM				57 µM	56.3 ± 6.81%				
CCN(CC)CCC(CC(=O)[O-])C(=O)[O-].NC1CCCCC1N.[Pt+2] (racemic) [Compound 10, [2-(2-diethyl amino ethyl)-succinato].[Cis-(1,2-trans-cyclohexyldiamine)]platinum (II)]	25 µM	28 µM		0.595 mmol/kg			5 µM				24 µM	55.1 ± 9.07%				
CN(C)CCCC1CC(=O)[O][Pt]2([NH]C3CCCCC3[NH]2)[O]C1=O (stereo not drawn) [Compound 11, [2-(3-dimethylamino propyl)-succinato].[Cis-(1,2-trans-cyclohexyldiamine)]platinum (II)]	45 µM	51 µM		0.571 mmol/kg			22 µM				13 µM	46.3 ± 9.88%				
NC(CC(=O)[O-])C(=O)[O-].NC1CCCCC1N.[Pt+2] (racemic) [ADP, [DL-2-amino-succinato].[trans-hexamethylenediamine]platinum (II), reference compound]	107 µM	162 µM	73 µM	0.332 mmol/kg	145 µM	156 µM	98 µM	160 µM	187 µM	98 µM and 163 µM	61 µM		68.3 ± 10.27 9%	45.3 ± 11.21%		
CN(C)CCC1CC(=O)[O][Pt]([NH2])([NH2])[O]C1=O (stereo not drawn) [Compound 2, [2-(2-dimethylaminoethyl)-succinato].[Cis-diamine]platinum (II)]															176 mg/mL	511 µmol/kg
